From patent publication US20250059179A1, “Heterocyclic Compounds and Methods of Use” (AMGEN INC., priority 2021, published 2025)
pIC50: −log10 of the molar value.

Legend:
[1] = biological target: His-tagged KRAS G12D protein (Homo sapiens, UniProt P01116, G12D); assay: KRAS G12D TR-FRET Assay; assay type: binding; settings: biotinylated KRPep-2d substrate, 10 μM GDP;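 further: europium anti-His antibody paired with streptavidin-d2 as FRET partners, initial 30 min incubation, then peptide 1 h and detection reagents 1 h, all at room temperature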
[2] = biological target: GDP-bound KRAS protein (aa 1-169), containing both G12D and C118A amino acid substitutions (Homo sapiens, UniProt P01116, C118A/G12D); assay: KRAS G12D Coupled Nucleotide Exchange Assay; assay type: biochemical; settings: 2 h compound pre-incubation; SOS-mediated nucleotide exchange, cRAF AlphaScreen readout;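 further: IC50 obtained by fitting the AlphaScreen signal with a four-parameter logistic curve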
[3] = system: Phosphorylation of ERK1/2 in A-427 cells; assay: Phospho-ERK1/2 MSD Assay; assay type: cell-based; settings: Homo sapiens, A-427, 2 h, 2 h compound treatment, read-out: pERK (A427 cells) IC50
Description: A-427 (ATCC® HTB-53™) cells were cultured in RPMI 1640 Medium (ThermoFisher Scientific 11875093) containing 10% fetal bovine serum (ThermoFisher Scientific 16000044) and 1× penicillin-streptomycin-glutamine (ThermoFisher Scientific 10378016). Sixteen hours prior to compound treatment, A-427 cells were seeded in 96-well cell culture plates at a density of 25,000 cells/well and incubated at 37° C., 5% CO2. A compound dose-response titration was diluted in growth media, added to appropriate wells of a cell culture plate, and then incubated at 37° C., 5% CO2 for 2 h. Following compound treatment, cells were washed with ice-cold Dulbecco's phosphate-buffered saline, no Ca^2+ or Mg^2+ (ThermoFisher Scientific 14190144), and then lysed in RIPA buffer (50 mM Tris-HCl pH 7.5, 1% Igepal, 0.5% sodium deoxycholate, 150 mM NaCl, and 0.5% sodium dodecyl sulfate) containing protease inhibitors (Roche 4693132001) and phosphatase inhibitors (Roche 4906837001). Phosphorylation of ERK1/2 in compound-treated lysates was assayed using Phospho-ERK1/2 Whole Cell Lysate kits (Meso Scale Discovery K151DWD) according to the manufacturer's protocol. Assay plates were read on a Meso Scale Discovery Sector Imager 6000, and data were analyzed using a 4-parameter logistic model to calculate IC50 values.

Chain of His-tagged KRAS G12D protein (P01116 1-188 isoform P01116-2 G12D): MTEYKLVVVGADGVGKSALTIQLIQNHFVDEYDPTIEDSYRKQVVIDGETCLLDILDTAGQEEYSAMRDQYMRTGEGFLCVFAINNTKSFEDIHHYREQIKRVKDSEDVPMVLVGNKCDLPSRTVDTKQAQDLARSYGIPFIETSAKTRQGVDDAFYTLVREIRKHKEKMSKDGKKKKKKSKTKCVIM
Chain of GDP-bound KRAS protein (aa 1-169), containing both G12D and C118A amino acid substitutions (P01116 1-169 isoform P01116-2 G12D/C118A): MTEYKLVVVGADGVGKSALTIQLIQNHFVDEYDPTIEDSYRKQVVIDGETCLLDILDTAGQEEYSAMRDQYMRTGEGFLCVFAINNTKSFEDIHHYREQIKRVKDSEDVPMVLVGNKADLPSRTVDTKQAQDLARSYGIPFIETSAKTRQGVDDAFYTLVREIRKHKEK

Row | pIC50 [1] | Avg 2 h Coupled Exchange IC50 [2] [µM] | pIC50 [3] | Structure (SMILES)
1 | 7.29 | 0.048 | 5.25 | Nc1nc2c(-c3c(Cl)cc4c(N5CCNC6CCCC65)nc(OC[C@@]56CCCN5C[C@H](F)C6)nc4c3F)ccc(F)c2s1 (stereo partly drawn) [Example 40, 4-(6-chloro-8-fluoro-2-(((2R,7aS)-2-fluorotetrahydro-1H-pyrrolizin-7a(5H)-yl)methoxy)-4-(octahydro-1H-cyclopenta[b]pyrazin-1-yl)quinazolin-7-yl)-7-fluorobenzo[d] thiazol-2-amine]
2 | 6.58 | 0.141 | < 4.60 | Nc1nc2c(-c3c(Cl)cc4c(N5CCNCC5)nc(OCC56CCCCN5CCC6)nc4c3F)cccc2s1 (stereo not drawn) [Example 57, 4-(6-chloro-8-fluoro-2-((hexahydro-indolizin-8a(1H)-yl)methoxy)-4-(piperazin-1-yl)quinazolin-7-yl)benzo[d] thiazol-2-amine]
3 | 6.35 | 0.176 | 4.74 | CN1CC[C@@H]1COc1nc(N2CCNCC2)c2cc(Cl)c(-c3cccc4sc(N)nc34)c(F)c2n1 [Example 58, 4-(6-chloro-8-fluoro-2-(((R)-1-methylazetidin-2-yl)methoxy)-4-(piperazin-1-yl)quinazolin-7-yl)benzo[d] thiazol-2-amine]
4 | 6.32 | 0.361 | < 4.60 | CN1CCC[C@H]1CCOc1nc(N2CCNCC2)c2cc(Cl)c(-c3cccc4sc(N)nc34)c(F)c2n1 [Example 61, 4-(6-chloro-8-fluoro-2-(2-((S)-1-methyl-pyrrolidin-2-yl)ethoxy)-4-(piperazin-1-yl)quinazolin-7-yl)benzo[d] thiazol-2-amine]
5 | 7.22 | 0.036 | < 5.00 | C[C@@]1(COc2nc(N3CCNCC3)c3cc(Cl)c(-c4cccc5sc(N)nc45)c(F)c3n2)CCCN1 [Example 73, 4-(6-chloro-8-fluoro-2-(((S)-2-methyl-pyrrolidin-2-yl)methoxy)-4-(piperazin-1-yl)quinazolin-7-yl)benzo[d] thiazol-2-amine]
6 | 6.64 | 0.122 | < 5.00 | C[C@]1(COc2nc(N3CCNCC3)c3cc(Cl)c(-c4cccc5sc(N)nc45)c(F)c3n2)CCCN1 [Example 74, 4-(6-chloro-8-fluoro-2-(((R)-2-methyl-pyrrolidin-2-yl)methoxy)-4-(piperazin-1-yl)quinazolin-7-yl)benzo[d] thiazol-2-amine]

The next lines start with the compound.

Row | Structure (SMILES) | pIC50 [1] | Avg 2 h Coupled Exchange IC50 [2] [µM] | pIC50 [3]
7 | Nc1nc2c(-c3c(Cl)cc4c(N5CCNC6CC65)nc(OC[C@@]56CCCN5C[C@H](F)C6)nc4c3F)ccc(F)c2s1 (stereo partly drawn) [Example 39, 4-(4-(2,5-diazabicyclo[4.1.0]heptan-2-yl)-6-chloro-8-fluoro-2-(((2R,7aS)-2-fluorotetrahydro-1H-pyrrolizin-7a(5H)-yl)methoxy)quinazolin-7-yl)-7-fluorobenzo[d] thiazol-2-amine] | 7.96 | 0.014 | 6.01
8 | Nc1nc2c(-c3c(Cl)cc4c(N5CCNCC5)nc(OC[C@@H]5C[C@@H](F)CN5)nc4c3F)cccc2s1 [Example 47, 4-(6-chloro-8-fluoro-2-(((2S,4R)-4-fluoro-pyrrolidin-2-yl)methoxy)-4-(piperazin-1-yl)quinazolin-7-yl)benzo[d] thiazol-2-amine] | 7.09 | 0.026 | < 4.60
9 | Nc1nc2c(-c3c(Cl)cc4c(N5CCNCC5)nc(OC[C@]56CCCN5[C@@H](CO)CC6)nc4c3F)cccc2s1 [Example 50, ((3R,7aR)-7a-(((7-(2-aminobenzo[d]thiazol-4-yl)-6-chloro-8-fluoro-4-(piperazin-1-yl)quinazolin-2-yl)oxy)methyl)hexahydro-1H-pyrrolizin-3-yl)methanol] | 7.26 | 0.042 | 4.69
10 | Nc1nc2c(-c3c(Cl)cc4c(N5CCNCC5)nc(OC[C@@]56CCCN5[C@@H](CO)CC6)nc4c3F)cccc2s1 [Example 51, ((3R,7aS)-7a-(((7-(2-aminobenzo[d]thiazol-4-yl)-6-chloro-8-fluoro-4-(piperazin-1-yl)quinazolin-2-yl)oxy)methyl)hexahydro-1H-pyrrolizin-3-yl)methanol] | 7.28 | 0.042 | 4.78
11 | CN1CC[C@H]1COc1nc(N2CCNCC2)c2cc(Cl)c(-c3cccc4sc(N)nc34)c(F)c2n1 [Example 52, 4-(6-chloro-8-fluoro-2-(((S)-1-methylazetidin-2-yl)methoxy)-4-(piperazin-1-yl)quinazolin-7-yl)benzo[d] thiazol-2-amine] | 6.87 | 0.059 | 4.80
12 | CN1CC[C@@H](COc2nc(N3CCNCC3)c3cc(Cl)c(-c4cccc5sc(N)nc45)c(F)c3n2)C1 [Example 53, 4-(6-chloro-8-fluoro-2-(((R)-1-methyl-pyrrolidin-3-yl)methoxy)-4-(piperazin-1-yl)quinazolin-7-yl)benzo[d] thiazol-2-amine] | 6.38 | 0.075 | < 4.60
13 | Nc1nc2c(-c3c(Cl)cc4c(N5CCNCC5)nc(OC[C@@H]5CCCN5CCF)nc4c3F)cccc2s1 [Example 56, 4-(6-chloro-8-fluoro-2-(((S)-1-(2-fluoroethyl)pyrrolidin-2-yl)methoxy)-4-(piperazin-1-yl)quinazolin-7-yl)benzo[d] thiazol-2-amine] | 6.58 | 0.118 | 5.25
14 | CN1CCCCC1CCOc1nc(N2CCNCC2)c2cc(Cl)c(-c3cccc4sc(N)nc34)c(F)c2n1 (stereo not drawn) [Example 60, 4-(6-chloro-8-fluoro-2-(2-(1-methylpiperidin-2-yl)ethoxy)-4-(piperazin-1-yl)quinazolin-7-yl)benzo[d] thiazol-2-amine] | 6.32 | 0.343 | < 4.60
15 | Nc1nc2c(-c3c(Cl)cc4c(N5CCNCC5)nc(OC[C@@H]5CCCN5)nc4c3F)cccc2s1 [Example 72, 4-(6-chloro-8-fluoro-4-(piperazin-1-yl)-2-(((S)-pyrrolidin-2-yl)methoxy)quinazolin-7-yl)benzo[d] thiazol-2-amine] | 6.95 | 0.063 | < 5.00
16 | Nc1nc2c(-c3c(Cl)cc4c(N5[C@@H]6CNC[C@H]5COC6)nc(OC[C@@]56CCCN5C[C@H](F)C6)nc4c3F)ccc(F)c2s1 [Example 122, 4-(4-((1R,5S)-3-Oxa-7,9-diazabicyclo[3.3.1]nonan-9-yl)-6-chloro-8-fluoro-2-(((2R,7aS)-2-fluorotetrahydro-1H-pyrrolizin-7a(5H)-yl)methoxy)quinazolin-7-yl)-7-fluorobenzo[d]thiazol-2-amine] | 8.40 | 0.003 | 6.78
17 | Nc1nc2c(-c3c(Cl)cc4c(N5[C@@H]6CC[C@H]5CNC6)nc(OC[C@]56CCCN5C[C@H](F)C6)nc4c3F)ccc(F)c2s1 [Example 123, 4-(4-((1R,5S)-3,8-diazabicyclo[3.2.1]octan-8-yl)-6-chloro-8-fluoro-2-(((2R,7aR)-2-fluorotetrahydro-1H-pyrrolizin-7a(5H)-yl)methoxy)quinazolin-7-yl)-7-fluorobenzo[d]thiazol-2-amine] | 8.30 | 0.006 | 7.16
